Test results from US10071042B2, “External dermatological agent for anti-ageing” (Hayashibara Co., Ltd., priority 2014, dated 2018).
Marks after values point to notes of the source that are not given here.

Tests used:
matrix metalloprotease-1 = assay: Matrix metalloprotease-1 production of NHDF after IL-1β, ELISA (Experiments 5 and 9); assay type: cell-based, human; conditions: for Production level of matrix metalloprotease-1 (%): human IL-1β 1 ng/ml, control = 100%
Method: Normal human dermal fibroblasts (NHDF), which had been suspended in a Dulbecco's Modified Eagle Medium supplemented with 10% fetal calf serum to give a concentration of 2.5×10^5 cells/mL, were placed in 96-well microplates by 0.1 mL/well and cultured until reaching a confluent state over the bottom of each well. Thereafter, the medium in each well was replaced with a fresh serum-free culture medium and culture for another 24 hours, added with any one of the test substances in Table 6 at each concentration shown in the table, and cultured for additional 24 hours. Then, the resulting cell cultures were added with human IL-1β to give a final concentration of 1 ng/ml, followed by culturing the cells for another 24 hours. After completion of the culture, matrix metalloprotease-1 in the supernatant in each well was detected with an enzyme-linked immuno sorbent assay (ELISA), commercialized by R & D Systems, Inc., MN, USA, developed coloration with tetramethylbenzidine, and measured for absorption at a wavelength of 450 nm. A control system was provided similarly as above except for not adding any test substance, and determined for the activity of matrix metalloprotease-1 similarly as in the above to be regarded as 100%. The production level of matrix metalloprotease-1 for each test substance was comparatively evaluated based on the following equation. Equation: Production level of matrix metalloprotease-1 (relative value (%))=[(Absorbance of a sample with any one of test substances)/(Absorbance of control)]×100
The experiment was repeated three times, and the data were compared to that of control with the Dunnett's multiple comparisons test. The symbol “*” means a level of significance of p<0.01.
Except for adding the test substances listed in Table 12 at respective concentrations shown in the table, experiments were respectively conducted in accordance with the methods in Experiment 5 disclosed in the specification to examine the effect of the combination use with ascorbic acid 2-glucoside used as a skin whitener in cosmetics on the action of anti-wrinkles by analogues of adenosine N1-oxide 5′-phosphate. A control system was provided and similarly treated as above except for not adding any test substance. The reduction rate of the production level of matrix metalloprotease-1 against that of control based on the following equation. Equation: Reduction rate of the production level of matrix metalloprotease−1(%)=100−[(Absorbance of a sample with any one of test substances)/(Absorbance of control)]×100

[1] = system: normal human epidermal keratinocytes; assay: Production level of cornified envelope, absorbance 310 nm (Experiments 1-2 and 7); assay type: cell-based; conditions: for Production level (%) of cornified envelope: control = 100%
Method: Normal human epidermal keratinocytes were cultured similarly as in Experiment 1-1, except for adding the test substances listed in Table 2 at prescribed concentrations to the cells. The resulting cultured cells were washed once with phosphate buffered saline (PBS), followed by scrapping off the cells adhered to each culture plate by adding 0.5 mL of PBS to each well of the plates. The cell suspensions thus obtained were added with 10% sodium lauryl sulfate solution in a volume of ¼ of each of the suspension volumes, followed by stirring and freezing the resulting mixtures at −80° C. After thawing, the resulting mixtures were centrifuged at 12,000×g for 15 min, followed by collecting the cell precipitates which were then washed once with phosphate buffered saline containing 2% sodium lauryl sulfate. The resulting mixtures were centrifuged at 12,000×g for 15 min, followed by collecting the cells and suspending the collected cells with phosphate buffered saline containing 2% sodium lauryl sulfate and 20 mM dithiothreitol. The resulting cell suspensions were boiled in a boiling water bath for one hour and measured for absorbance at a wavelength of 310 nm to determine the production level of cornified envelope for each test system added with any of the test substances. A control system was provided similarly as above except for not adding any one of the test substances to the system, and determined for absorbance at a wavelength of 310 nm similarly as in the above to be regarded as 100%. The production level of cornified envelope for each test substance was relatively evaluated based on the following equation. Equation: Production level of cornified envelope (Relative value (%))=[(Absorbance of a sample with any one of test substances)/(Absorbance of Control)]×100
The experiment was repeated three times, and the data was subjected to the Dunnett's multiple comparisons with Control. The symbol “*” means a level of significance of p<0.01.
Except for adding the test substances listed in Tables 8 and 9 at respective concentrations shown in the tables, experiments were respectively conducted in accordance with the methods in Experiments 1-2 and 1-3 disclosed in the specification to examine the effect of the combination use of epigallocatechin gallate, which is used as an antioxidant for cosmetics, and sodium adenosine N1-oxide 5′-phosphate on the action of accelerating the cornified-envelope production and the action of enhancing the transglutaminase activity of sodium adenosine N1-oxide 5′-phosphate. A control system was provided and similarly treated as above except for not adding any test substance and was determined for both the increase rates of cornified-envelope production level and the transglutaminase activity, based on the following equations. Equation: Increase rate of cornified envelope production level (%)={[(Absorbance of a sample with any one of test substances)/(Absorbance of control)]×100}−100 Equation: Increase rate of transglutaminase (%)={[(Absorbance of a sample with any one of test substances)/(Absorbance of control)]×100}−100

## 3′-α-Glucosyladenosine [reference compound]
Matrix metalloprotease-1; 200 μM
  Production level of matrix metalloprotease-1 (%): 86.6%
Matrix metalloprotease-1; 400 μM
  Production level of matrix metalloprotease-1 (%): 87.1%
Matrix metalloprotease-1; 800 μM
  Production level of matrix metalloprotease-1 (%): 98.7%
[1]; 800 μM
  Production level (%) of cornified envelope: 104.2%

## 3′-α-glucosyl adenosine N1-oxide [3′-α-Glucosyladenosine N1-oxide]
Matrix metalloprotease-1; 200 μM
  Production level of matrix metalloprotease-1 (%): 78.7* %
Matrix metalloprotease-1; 400 μM
  Production level of matrix metalloprotease-1 (%): 75.5* %
Matrix metalloprotease-1; 800 μM
  Production level of matrix metalloprotease-1 (%): 68.6* %
[1]; 200 μM
  Production level (%) of cornified envelope: 141.4* %

## 5′-α-Glucosyladenosine [reference compound]
Matrix metalloprotease-1; 200 μM
  Production level of matrix metalloprotease-1 (%): 89.9%
Matrix metalloprotease-1; 400 μM
  Production level of matrix metalloprotease-1 (%): 94.3%
Matrix metalloprotease-1; 800 μM
  Production level of matrix metalloprotease-1 (%): 87.7%

## 5′-α-glucosyl adenosine N1-oxide [5′-α-Glucosyladenosine N1-oxide]
Matrix metalloprotease-1; 200 μM
  Production level of matrix metalloprotease-1 (%): 85.4* %
Matrix metalloprotease-1; 400 μM
  Production level of matrix metalloprotease-1 (%): 83.6* %
Matrix metalloprotease-1; 800 μM
  Production level of matrix metalloprotease-1 (%): 77.0* %
[1]; 600 μM
  Production level (%) of cornified envelope: 148.8* %

## Nc1ncnc2c1ncn2[C@@H]1O[C@H](COP(=O)(O)O)[C@@H](O)[C@H]1O [Adenosine 5′-phosphate, reference compound]
Matrix metalloprotease-1; 200 μM
  Production level of matrix metalloprotease-1 (%): 99.5%
Matrix metalloprotease-1; 400 μM
  Production level of matrix metalloprotease-1 (%): 93.3%
Matrix metalloprotease-1; 800 μM
  Production level of matrix metalloprotease-1 (%): 90.3%
[1]; 400 μM
  Production level (%) of cornified envelope: 136.5%

## Nc1c2ncn([C@@H]3O[C@H](CO)[C@@H](O)[C@H]3O)c2nc[n+]1[O-] [Adenosine N1-oxide, adenosine N1-oxide]
Matrix metalloprotease-1; 5 μM
  Production level of matrix metalloprotease-1 (%): 86.6%
Matrix metalloprotease-1; 10 μM
  Production level of matrix metalloprotease-1 (%): 77.6* %
Matrix metalloprotease-1; 20 μM
  Production level of matrix metalloprotease-1 (%): 31.9* %
Matrix metalloprotease-1; Homo sapiens, NHDF, 2 μM, single use, reduction against control, read-out: Reduction rate of the production level of matrix metalloprotease-1 activity (%)
  inhibition at 2 µM: 10%
Matrix metalloprotease-1; Homo sapiens, NHDF, 5 μM, single use, reduction against control, read-out: Reduction rate of the production level of matrix metalloprotease-1 activity (%)
  inhibition at 5 µM: 13.4%
Matrix metalloprotease-1; Homo sapiens, NHDF, 10 μM, single use, reduction against control, read-out: Reduction rate of the production level of matrix metalloprotease-1 activity (%)
  inhibition at 10 µM: 22.4%
[1]; 25 μM
  Production level (%) of cornified envelope: 178.7* %
[1]; 25 μM, listed as adenosine N-1 oxide
  Production level (%) of cornified envelope: about 180%

## Nc1ncnc2c1ncn2[C@@H]1O[C@H](CO)[C@@H](O)[C@H]1O [Adenosine, reference compound]
Matrix metalloprotease-1; 200 μM
  Production level of matrix metalloprotease-1 (%): 88.7%
Matrix metalloprotease-1; 400 μM
  Production level of matrix metalloprotease-1 (%): 93.4%
Matrix metalloprotease-1; 800 μM
  Production level of matrix metalloprotease-1 (%): 85.6%
[1]; 400 μM
  Production level (%) of cornified envelope: 101.7%

## Nc1c2ncn([C@@H]3O[C@H](COP(=O)([O-])O)[C@@H](O)[C@H]3O)c2nc[n+]1[O-].[Na+] [Sodium adenosine N1-oxide 5′-phosphate, sodium adenosine N1-oxide 5′-phosphate]
Matrix metalloprotease-1; 2 μM, single use, reduction against control
  Reduction rate of the production level of matrix metalloprotease-1 activity (%): 2.9%
Matrix metalloprotease-1; 5 μM
  Production level of matrix metalloprotease-1 (%): 96.0%
Matrix metalloprotease-1; 5 μM, single use, reduction against control
  Reduction rate of the production level of matrix metalloprotease-1 activity (%): 4.0%
Matrix metalloprotease-1; 10 μM
  Production level of matrix metalloprotease-1 (%): 83.1* %
Matrix metalloprotease-1; 10 μM, listed as sodium adenosine N1-oxide 5′-phosphate
  Production level of matrix metalloprotease-1 (%): about 80%
Matrix metalloprotease-1; 10 μM, single use, reduction against control
  Reduction rate of the production level of matrix metalloprotease-1 activity (%): 16.9%
Matrix metalloprotease-1; 20 μM
  Production level of matrix metalloprotease-1 (%): 31.8* %
Matrix metalloprotease-1; 20 μM, listed as sodium adenosine N1-oxide 5′-phosphate
  Production level of matrix metalloprotease-1 (%): about 30%
[1]; 15 μM, single use, increase over control
  Increase rate of cornified envelope formation level (%): 2.8%
[1]; 25 μM
  Production level (%) of cornified envelope: 178.7* %
[1]; 25 μM, listed as adenosine N1-oxide 5′-phosphate
  Production level (%) of cornified envelope: about 180%
